# Assay results reported in publication PMC6940514 (Angewandte Chemie (International ed. in English), 2019).
# Columns and labels:
# S. pyogenes = experiment: Antibacterial activity; format: cell-based; settings: Streptococcus pyogenes
# Gram-negative bacteria = settings: general statement, no reference given; cited from earlier work
# S. pneumoniae = experiment: Antibacterial activity; format: cell-based; settings: Streptococcus pneumoniae
structure (smiles),measurement,setting,value
"C=C(NC(=O)C(=C)NC(=O)c1csc(C2=N[C@@H]3c4csc(n4)[C@H]4NC(=O)c5csc(n5)[C@H]([C@](C)(O)[C@@H](C)O)NC(=O)[C@H]5CSC(=N5)/C(=C/C)NC(=O)[C@H]([C@@H](C)O)NC(=O)c5csc(n5)[C@]3(CC2)NC(=O)[C@H](C)NC(=O)C(=C)NC(=O)[C@H](C)NC(=O)[C@H]([C@@H](C)CC)N[C@@H]2C=Cc3c([C@H](C)O)cc(nc3[C@H]2O)C(=O)O[C@@H]4C)n1)C(N)=O [Compound 1, Thiostrepton]",MIC,S. pyogenes,< 1 ng/mL
same,activity against Gram-negative bacteria,Gram-negative bacteria,inactive
same,MIC,S. pneumoniae,< 1 ng/mL
